Reference: PubChem BioAssay AID1996
≈ marks a conversion by molar mass, not a printed value.

Details: buffer; pH 7.4; 200.0 µM

SMILES	solubility kinetic [µg/mL]
CCOC(=O)C1CCCN(C(=O)c2cc3ccccc3oc2=O)C1 (stereo not given)	38.8 (≈ 118 µM)
CC1CCN(C(=O)COC(=O)CCC(=O)c2ccc(F)cc2)CC1	> 50.3
C1=NCCc2c1[nH]c1ccccc21.[O-][Cl+3]([O-])([O-])O	> 40.6
C(=N\NC1=NCCN1)/c1ccncc1.Cl	> 39.3
OCCNCC12CC3CC(CC(C3)C1)C2	26.4 (≈ 126 µM)
S=C(NCC1(c2ccccc2)CCCC1)Nc1ccccc1	0.8 (≈ 2.58 µM)
CCc1ccccc1NC(=O)N1CCCc2ccccc21	22.8 (≈ 81.3 µM)
CC1CCN(C(=S)NC(=O)c2cccs2)CC1	> 40.3
COC(=O)c1sccc1NC(=O)NC1CCCCC1	23.8 (≈ 84.3 µM)
O=c1[nH]c(=S)n(Cc2ccc(F)cc2)c(O)c1C=NCCCn1ccnc1	> 58.1
O=C(/C=C/c1cccc([N+](=O)[O-])c1)c1ccco1	1.7 (≈ 6.99 µM)
CCC(C(=O)NCCc1c[nH]c2ccc(C)cc12)c1ccccc1 (stereo not given)	26.4 (≈ 82.4 µM)
CC(=O)c1cc(C(=O)Nc2ccc3ccccc3c2)c(C)o1	34.5 (≈ 118 µM)
Cc1cccc(OCC(=O)NCCNC(=O)c2ccco2)c1	45 (≈ 149 µM)
CCCOc1ccc(S(=O)(=O)Nc2ccccn2)c2ccccc12	< 0.4
CC(C)c1ccc(NC(=O)C2CC2c2ccccc2)cc1 (stereo not given)	12 (≈ 43 µM)
CC(Sc1nccn1C)C(=O)Nc1ccc(Cl)cn1 (stereo not given)	> 44.5
CC(=O)NC(CC(=O)O)c1ccccc1 (stereo not given)	> 31.1
O=C(NCCc1c[nH]c2ccccc12)c1ccccc1Cl	23.2 (≈ 77.7 µM)
S=C(NCCCN1CCOCC1)N1CCOCC1	> 41

SMILES	solubility kinetic [µg/mL]
Cc1[nH]c2ccccc2c1C(=O)C(=O)Nc1ccc2c(c1)OCCO2	1.9 (≈ 5.65 µM)
O=C(Cc1ccsc1)Nc1cc(F)ccc1F	> 38
Cc1csc2c(NCCCN3CCOCC3)ncnc12	> 43.9
CSc1nsc(SC)c1C(=O)O	> 33.2
O=C1CC(C(=O)N2CCc3ccccc32)CN1c1ccccc1 (stereo not given)	9.2 (≈ 30 µM)
N/C(Cc1cccc2ccccc12)=N\O	15.2 (≈ 75.9 µM)
Cc1cc(NC(=O)CSc2nc3cc(C)c(C)cc3cc2C)no1	< 0.2
Cn1cc(C(=O)C(=O)NC2CCCCC2)c2ccccc21	31.8 (≈ 112 µM)
O=C(NCc1ccccc1)c1ccc(NC(=O)C2CCCO2)cc1 (stereo not given)	> 48.7
CCN(C(=O)COC(=O)c1ccc(Cl)cc1N)C1CCCCC1	2.7 (≈ 7.97 µM)
CC(C)(C)NC(=O)Cn1c(Cl)nc2ccccc21	> 39.9
CCOc1ccc(N/C=C/C(=O)c2ccc(OC)cc2)cc1	< 0.6
CCN(CC)CCn1c(N)nc2ccccc21.Cl	44.7
CN=C(c1ccc([N+](=O)[O-])cc1)N1CCCCC1	> 37.1
CN(c1ccc(F)cc1)S(=O)(=O)c1ccc(Cl)c(C(=O)NCc2ccco2)c1	34.9 (≈ 82.5 µM)
CCOC(=O)C1=C(N)Oc2cc(O)ccc2C1c1ccccc1 (stereo not given)	< 0.7
CC1CCCCC1NC(=O)COC(=O)c1ccc2c(=O)n3c(nc2c1)CCC3 (stereo not given)	22.2 (≈ 57.9 µM)
O=c1[nH]c(SCc2ccc(Cl)cc2)nc2ccccc12	0.8 (≈ 2.64 µM)
Cc1ccc(S(=O)(=O)N2CCN(C(=O)COC(=O)/C=C/c3ccc([N+](=O)[O-])cc3)CC2)c(C)c1	1.9 (≈ 3.9 µM)
COC1=C(Nc2ccccc2OC)C(=O)c2ccccc2C1=O	17.2 (≈ 55.6 µM)

SMILES	solubility kinetic [µg/mL]
COc1ccc(OC)c(C(O)C2CCCCN2)c1.Cl (stereo not given)	> 43.2
Cc1ccc(CNC(=O)c2cc(=O)c3ccc(C)cc3o2)cc1	2.6 (≈ 8.46 µM)
CNc1nc(NC#N)nc(SC)n1	24.9 (≈ 127 µM)
O=C(O)c1cccc([N+](=O)[O-])c1C(=O)Nc1cccc2ccccc12	39.5 (≈ 117 µM)
Cc1cc(C)c(N=C2C(=O)Nc3ccccc32)c(C)c1	> 39.6
COc1cccc(CNC(=O)CCN2C(=S)NC(C)(C)CC2C)c1 (stereo not given)	> 52.4
O=S(=O)(/C=C/c1ccccc1)N1CCOCC1	> 38
Cc1ccccc1C(N)c1ccncc1.Cl (stereo not given)	> 40.7
O=C(Nc1cc([N+](=O)[O-])ccc1F)C1CCN(S(=O)(=O)c2cccs2)CC1	4.4 (≈ 10.6 µM)
CC(C)(C)C(=O)Nc1ccc(C(=O)COC(=O)c2ccccn2)cc1	50.2 (≈ 147 µM)
Cc1cc(C(=O)COc2cc(F)ccc2[N+](=O)[O-])c(C)n1CC1CCCO1 (stereo not given)	34.4 (≈ 91.4 µM)
CC(C)CC(=O)c1c[nH]c(C(=O)NCc2ccccc2)c1	1.6 (≈ 5.63 µM)
COc1ccc(C(=O)NCCCNC(=O)c2ccccn2)cc1	> 47
CC(C)COc1cccc(C(=O)N(C)CC(=O)Nc2cccc3ccccc23)c1	33.6 (≈ 86 µM)
Cc1cc(C)n2nc(SCC(=O)Nc3ccc(F)cc3[N+](=O)[O-])nc2n1	> 56.5
O=C(Nc1nccs1)c1ccc(-c2ccc(F)c(Cl)c2)o1	0.5 (≈ 1.55 µM)
CCCCOc1ccc(C(=O)Oc2cccnc2)cc1	1.5 (≈ 5.53 µM)
CN(Cc1ccc(F)cc1)C(=O)c1ccc2c(c1)NC(=O)CS2	> 49.6
COc1cccc2cc(C(=O)NCCN3CCOCC3)oc12	> 45.7
COc1ccc(CN2CCOCCOCCOCC2)cc1	39.1 (≈ 132 µM)
